Laboratory results reported in ChEMBL document CHEMBL1926681, “Novel inhibitors of epidermal growth factor receptor: (4-(Arylamino)-7H-pyrrolo[2,3-d]pyrimidin-6-yl)(1H-indol-2-yl)methanones and (1H-indol-2-yl)(4-(phenylamino)thieno[2,3-d]pyrimidin-6-yl)methanones” (Bioorg Med Chem, 2012).
The source made the active and inactive calls. The rule behind the calls is not given here.

What was measured:
[1] = biological target: Hepatocyte growth factor receptor (Homo sapiens) (UniProt P08581); assay: Inhibition of MET using poly(Ala, Glu, Lys, Tyr) as substrate and [gamma33P]ATP at 1 uM after 60 mins by scintillation counting
[2] = biological target: T1, Epidermal growth factor receptor (Homo sapiens, UniProt P00533); assay: Inhibition of EGFR using poly(Glu,Tyr)4:1 as substrate and [gamma33P]ATP at 1 uM after 60 mins by scintillation counting
[3] = biological target: Vascular endothelial growth factor receptor 2 (Homo sapiens) (UniProt P35968); assay: Inhibition of VEGFR2 using poly(Glu,Tyr)4:1 as substrate and [gamma33P]ATP at 1 uM after 60 mins by scintillation counting
[4] = biological target: Receptor tyrosine-protein kinase erbB-2 (Homo sapiens) (UniProt P04626); assay: Inhibition of Erbb2 using poly(Glu,Tyr)4:1 as substrate and [gamma33P]ATP at 1 uM after 60 mins by scintillation counting
[5] = biological target: Tyrosine-protein kinase ABL1 (Homo sapiens) (UniProt P00519); assay: Inhibition of ABL1 using poly(Ala, Glu, Lys, Tyr) as substrate and [gamma33P]ATP at 1 uM after 60 mins by scintillation counting
[6] = biological target: T1, Epidermal growth factor receptor; assay: Inhibition of EGFR using poly(Glu,Tyr)4:1 as substrate and [gamma33P]ATP after 60 mins by scintillation counting

Sequence of Hepatocyte growth factor receptor (Homo sapiens) (P08581 whole entry): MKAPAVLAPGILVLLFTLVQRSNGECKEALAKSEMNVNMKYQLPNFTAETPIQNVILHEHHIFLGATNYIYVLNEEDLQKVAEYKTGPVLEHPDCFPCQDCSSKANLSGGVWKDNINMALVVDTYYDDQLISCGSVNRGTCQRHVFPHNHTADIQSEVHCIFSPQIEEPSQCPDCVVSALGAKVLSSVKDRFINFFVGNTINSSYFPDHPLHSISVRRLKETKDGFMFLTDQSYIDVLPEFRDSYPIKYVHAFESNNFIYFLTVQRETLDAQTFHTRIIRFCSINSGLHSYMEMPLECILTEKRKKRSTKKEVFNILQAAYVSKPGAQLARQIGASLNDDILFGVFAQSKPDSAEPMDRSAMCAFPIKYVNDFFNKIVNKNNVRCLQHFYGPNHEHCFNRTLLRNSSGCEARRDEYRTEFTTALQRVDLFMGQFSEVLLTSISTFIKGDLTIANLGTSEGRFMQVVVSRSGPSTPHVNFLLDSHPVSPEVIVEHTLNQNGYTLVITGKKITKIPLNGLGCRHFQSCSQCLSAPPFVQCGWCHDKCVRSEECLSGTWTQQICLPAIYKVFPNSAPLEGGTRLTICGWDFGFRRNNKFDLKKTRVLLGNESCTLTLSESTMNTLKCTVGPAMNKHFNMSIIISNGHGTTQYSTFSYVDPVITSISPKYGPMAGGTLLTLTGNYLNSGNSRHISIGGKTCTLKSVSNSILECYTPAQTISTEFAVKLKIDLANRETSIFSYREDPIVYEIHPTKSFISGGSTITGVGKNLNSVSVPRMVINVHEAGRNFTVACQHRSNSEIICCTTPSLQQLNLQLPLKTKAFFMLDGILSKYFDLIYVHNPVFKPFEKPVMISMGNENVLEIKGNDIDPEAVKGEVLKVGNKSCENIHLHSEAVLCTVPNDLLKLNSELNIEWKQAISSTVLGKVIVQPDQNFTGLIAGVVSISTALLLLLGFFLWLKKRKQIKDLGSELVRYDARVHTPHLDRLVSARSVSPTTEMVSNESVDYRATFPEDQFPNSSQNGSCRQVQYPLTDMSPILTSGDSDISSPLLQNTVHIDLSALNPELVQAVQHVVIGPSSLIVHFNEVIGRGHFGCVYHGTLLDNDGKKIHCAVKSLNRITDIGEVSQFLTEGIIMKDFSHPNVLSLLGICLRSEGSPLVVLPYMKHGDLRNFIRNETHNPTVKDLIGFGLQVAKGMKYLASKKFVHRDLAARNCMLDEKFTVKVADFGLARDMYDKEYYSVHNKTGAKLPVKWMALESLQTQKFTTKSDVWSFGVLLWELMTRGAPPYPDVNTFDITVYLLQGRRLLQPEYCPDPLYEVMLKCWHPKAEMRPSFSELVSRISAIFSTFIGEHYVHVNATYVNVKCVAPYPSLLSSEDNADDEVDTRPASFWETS
Sequence of Receptor tyrosine-protein kinase erbB-2 (Homo sapiens) (P04626 whole entry): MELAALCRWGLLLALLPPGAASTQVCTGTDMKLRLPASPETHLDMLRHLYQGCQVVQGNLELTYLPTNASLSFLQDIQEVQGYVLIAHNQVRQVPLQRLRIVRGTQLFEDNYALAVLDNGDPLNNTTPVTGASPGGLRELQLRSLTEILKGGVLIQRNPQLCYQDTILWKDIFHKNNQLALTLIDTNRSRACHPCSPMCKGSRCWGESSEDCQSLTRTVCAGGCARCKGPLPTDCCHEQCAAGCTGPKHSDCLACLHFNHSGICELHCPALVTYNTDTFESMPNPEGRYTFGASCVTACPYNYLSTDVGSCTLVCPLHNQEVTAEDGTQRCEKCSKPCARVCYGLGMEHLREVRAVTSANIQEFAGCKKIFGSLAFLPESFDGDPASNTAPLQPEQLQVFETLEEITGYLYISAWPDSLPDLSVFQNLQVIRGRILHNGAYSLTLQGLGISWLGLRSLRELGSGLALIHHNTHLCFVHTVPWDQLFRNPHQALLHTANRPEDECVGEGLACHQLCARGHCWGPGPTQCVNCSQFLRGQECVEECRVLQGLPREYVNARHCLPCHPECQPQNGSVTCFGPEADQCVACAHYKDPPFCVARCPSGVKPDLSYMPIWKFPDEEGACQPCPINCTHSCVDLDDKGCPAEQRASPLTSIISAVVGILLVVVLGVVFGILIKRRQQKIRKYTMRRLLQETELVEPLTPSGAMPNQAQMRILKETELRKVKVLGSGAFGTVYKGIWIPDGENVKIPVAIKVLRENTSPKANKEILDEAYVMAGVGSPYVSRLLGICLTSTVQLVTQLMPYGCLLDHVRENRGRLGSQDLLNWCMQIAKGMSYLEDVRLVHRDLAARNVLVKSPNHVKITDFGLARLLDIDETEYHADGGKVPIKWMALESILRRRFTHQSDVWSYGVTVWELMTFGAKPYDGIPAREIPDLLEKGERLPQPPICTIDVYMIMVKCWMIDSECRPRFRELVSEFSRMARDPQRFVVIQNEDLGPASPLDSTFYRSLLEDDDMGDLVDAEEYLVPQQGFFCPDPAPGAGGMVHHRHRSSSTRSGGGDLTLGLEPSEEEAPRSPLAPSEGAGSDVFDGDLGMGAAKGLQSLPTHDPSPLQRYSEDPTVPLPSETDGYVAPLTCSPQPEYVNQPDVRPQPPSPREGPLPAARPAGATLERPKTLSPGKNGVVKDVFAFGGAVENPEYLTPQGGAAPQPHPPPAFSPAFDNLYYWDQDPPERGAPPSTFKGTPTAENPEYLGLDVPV
Sequence of Vascular endothelial growth factor receptor 2 (Homo sapiens) (P35968 whole entry): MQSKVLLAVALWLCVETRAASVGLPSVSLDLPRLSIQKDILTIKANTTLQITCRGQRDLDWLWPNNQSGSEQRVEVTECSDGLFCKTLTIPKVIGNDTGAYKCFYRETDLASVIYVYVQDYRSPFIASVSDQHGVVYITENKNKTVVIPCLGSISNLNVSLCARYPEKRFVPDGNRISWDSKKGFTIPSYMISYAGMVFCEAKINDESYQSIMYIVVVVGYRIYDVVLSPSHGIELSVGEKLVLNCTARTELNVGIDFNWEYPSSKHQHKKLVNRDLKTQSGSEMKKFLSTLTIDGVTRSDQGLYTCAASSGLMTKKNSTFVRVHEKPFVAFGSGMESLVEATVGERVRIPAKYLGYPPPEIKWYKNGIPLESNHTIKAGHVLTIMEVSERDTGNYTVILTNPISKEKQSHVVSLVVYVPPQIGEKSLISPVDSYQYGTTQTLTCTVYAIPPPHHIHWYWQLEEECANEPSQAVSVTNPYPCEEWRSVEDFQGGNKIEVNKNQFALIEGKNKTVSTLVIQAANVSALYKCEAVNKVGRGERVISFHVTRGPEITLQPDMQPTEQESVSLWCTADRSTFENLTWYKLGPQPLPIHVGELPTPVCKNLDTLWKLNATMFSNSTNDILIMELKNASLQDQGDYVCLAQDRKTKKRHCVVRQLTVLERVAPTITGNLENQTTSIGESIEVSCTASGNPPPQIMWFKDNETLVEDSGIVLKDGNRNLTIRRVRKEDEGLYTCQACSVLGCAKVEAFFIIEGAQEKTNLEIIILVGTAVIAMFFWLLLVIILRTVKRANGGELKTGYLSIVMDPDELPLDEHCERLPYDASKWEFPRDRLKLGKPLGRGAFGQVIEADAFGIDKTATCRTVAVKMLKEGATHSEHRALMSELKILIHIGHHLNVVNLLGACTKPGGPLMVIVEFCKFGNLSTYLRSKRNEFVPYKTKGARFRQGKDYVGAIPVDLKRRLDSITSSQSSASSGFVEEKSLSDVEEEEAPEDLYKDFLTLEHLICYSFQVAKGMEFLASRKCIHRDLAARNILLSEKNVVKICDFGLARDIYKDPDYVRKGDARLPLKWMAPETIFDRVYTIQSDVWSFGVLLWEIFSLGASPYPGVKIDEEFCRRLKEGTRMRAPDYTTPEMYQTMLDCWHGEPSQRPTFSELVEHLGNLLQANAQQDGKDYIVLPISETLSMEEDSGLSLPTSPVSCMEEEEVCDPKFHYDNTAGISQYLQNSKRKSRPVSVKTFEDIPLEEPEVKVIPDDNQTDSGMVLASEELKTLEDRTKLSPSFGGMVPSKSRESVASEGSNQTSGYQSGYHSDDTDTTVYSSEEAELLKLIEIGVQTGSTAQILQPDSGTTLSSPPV
Sequence of Tyrosine-protein kinase ABL1 (Homo sapiens) (P00519 whole entry): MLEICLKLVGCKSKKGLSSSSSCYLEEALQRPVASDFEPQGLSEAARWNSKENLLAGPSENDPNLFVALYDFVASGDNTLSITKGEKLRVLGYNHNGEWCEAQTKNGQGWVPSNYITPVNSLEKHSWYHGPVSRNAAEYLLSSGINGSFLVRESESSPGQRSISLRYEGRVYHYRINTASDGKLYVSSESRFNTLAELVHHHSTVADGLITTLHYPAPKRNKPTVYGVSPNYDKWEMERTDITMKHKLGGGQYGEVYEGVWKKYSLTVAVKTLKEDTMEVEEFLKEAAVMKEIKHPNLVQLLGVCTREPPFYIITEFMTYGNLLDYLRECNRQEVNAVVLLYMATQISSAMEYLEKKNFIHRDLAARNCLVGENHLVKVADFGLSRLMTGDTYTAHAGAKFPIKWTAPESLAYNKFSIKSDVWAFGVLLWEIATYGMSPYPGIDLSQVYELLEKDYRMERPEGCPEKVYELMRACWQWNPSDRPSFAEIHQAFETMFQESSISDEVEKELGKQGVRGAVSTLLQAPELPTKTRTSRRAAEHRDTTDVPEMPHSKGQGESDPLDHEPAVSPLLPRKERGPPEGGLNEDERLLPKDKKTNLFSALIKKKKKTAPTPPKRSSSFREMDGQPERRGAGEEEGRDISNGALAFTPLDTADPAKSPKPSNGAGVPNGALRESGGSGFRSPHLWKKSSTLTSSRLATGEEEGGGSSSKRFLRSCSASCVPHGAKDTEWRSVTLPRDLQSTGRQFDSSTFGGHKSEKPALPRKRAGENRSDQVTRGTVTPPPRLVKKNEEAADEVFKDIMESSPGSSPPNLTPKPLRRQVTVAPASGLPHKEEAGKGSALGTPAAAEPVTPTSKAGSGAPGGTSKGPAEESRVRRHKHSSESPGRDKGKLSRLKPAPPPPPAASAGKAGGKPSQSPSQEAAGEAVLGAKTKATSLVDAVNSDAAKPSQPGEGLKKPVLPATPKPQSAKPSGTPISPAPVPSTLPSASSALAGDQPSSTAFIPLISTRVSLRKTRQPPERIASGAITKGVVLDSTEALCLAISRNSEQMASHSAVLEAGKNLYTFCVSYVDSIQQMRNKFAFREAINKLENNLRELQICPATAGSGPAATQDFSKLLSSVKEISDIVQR

SMILES	inhibition [1]	inhibition [2]	inhibition [3]	inhibition [4]	inhibition [5]	IC50 [6]
O=C(c1cc2ccccc2[nH]1)c1cc2c(NCc3ccccc3)ncnc2s1	inactive	77%	17%	38%	inactive	–
O=C(c1cc2ccccc2[nH]1)c1cc2c(Nc3ccc(Cl)cc3)ncnc2s1	inactive	80%	19%	46%	inactive	–
O=C(c1cc2ccccc2s1)c1cc2c(Nc3ccc(F)c(Cl)c3)ncnc2s1	inactive	99%	22%	76%	inactive	0.0108 µM
C[C@@H](Nc1ncnc2sc(C(=O)c3cc4ccccc4[nH]3)cc12)c1ccccc1	inactive	88%	5%	61%	inactive	–
C#Cc1cccc(Nc2ncnc3[nH]c(C(=O)c4cc5ccccc5[nH]4)cc23)c1	inactive	83%	5%	70%	inactive	–
COc1cnc2[nH]c(C(=O)c3cc4c(Nc5cccc(I)c5)ncnc4[nH]3)cc2c1	inactive	77%	20%	20%	inactive	–
O=C(c1cc2ccccc2[nH]1)c1cc2c(Nc3ccc(F)cc3)ncnc2s1	inactive	96%	45%	50%	inactive	0.0437 µM
C[C@@H](Nc1ncnc2[nH]c(C(=O)c3cc4ccccc4[nH]3)cc12)c1ccccc1	inactive	82%	28%	37%	inactive	–
O=C(c1cc2ccccc2[nH]1)c1cc2c(Nc3cccc(I)c3)ncnc2s1	inactive	73%	0%	75%	inactive	–
O=C(c1cc2ccccc2[nH]1)c1cc2c(Nc3ccc(OCc4cccc(F)c4)cc3Cl)ncnc2[nH]1	inactive	77%	53%	13%	inactive	–

Further lines, results first:

inhibition [1]	inhibition [2]	inhibition [3]	inhibition [4]	inhibition [5]	IC50 [6]	SMILES
inactive	68%	47%	24%	inactive	–	O=C(c1cc2ccccc2[nH]1)c1cc2c(Nc3ccc(Cl)cc3)ncnc2[nH]1
inactive	22%	23%	83%	inactive	–	CN(c1ccc(F)c(Cl)c1)c1ncnc2sc(C(=O)c3cc4ccccc4[nH]3)cc12
inactive	0%	0%	0%	inactive	–	O=C(c1cc2cc(O)ccc2[nH]1)c1cc2cncnc2[nH]1
inactive	55%	13%	–	inactive	–	O=C(c1cc2ccccc2[nH]1)c1cc2c(NCc3ccccc3)ncnc2[nH]1
inactive	91%	29%	57%	inactive	0.0185 µM	O=C(c1cc2ccccc2[nH]1)c1cc2c(Nc3ccc(OCc4cccc(F)c4)cc3Cl)ncnc2s1
inactive	57%	31%	7%	inactive	–	O=C(c1cc2ccccc2[nH]1)c1cc2c(Nc3ccc(O)cc3)ncnc2[nH]1
inactive	85%	51%	88%	inactive	–	O=C(c1cc2ccccc2o1)c1cc2c(Nc3ccc(F)c(Cl)c3)ncnc2s1
inactive	88%	10%	52%	inactive	–	O=C(c1cc2ccccc2[nH]1)c1cc2c(Nc3cccc(I)c3)ncnc2[nH]1
inactive	43%	24%	34%	inactive	–	O=C(c1cc2ccccc2[nH]1)c1cc2c(Nc3ccc(C(F)(F)F)cc3)ncnc2s1
inactive	79%	29%	42%	inactive	–	O=C(c1cc2ccccc2[nH]1)c1cc2c(Nc3cccc(C(F)(F)F)c3)ncnc2s1
inactive	93%	9%	60%	inactive	0.0187 µM	C#Cc1cccc(Nc2ncnc3sc(C(=O)c4cc5ccccc5[nH]4)cc23)c1
inactive	50%	22%	14%	inactive	–	O=C(c1cc2ccccc2[nH]1)c1cc2c(Nc3ccc(Br)cc3F)ncnc2[nH]1
inactive	88%	47%	22%	inactive	–	O=C(c1cc2ccccc2[nH]1)c1cc2c(Nc3ccc(F)c(Cl)c3)ncnc2[nH]1
inactive	82%	46%	51%	inactive	–	O=C(c1cc2ccccc2[nH]1)c1cc2c(Nc3ccc(Br)cc3F)ncnc2s1
inactive	88%	17%	25%	inactive	–	COc1ccc2[nH]c(C(=O)c3cc4c(Nc5cccc(I)c5)ncnc4[nH]3)cc2c1
